Our source for the IC50 values is patent US20090306133A1, “New Acetyl Coenzyme A Carboxylase (ACC) Inhibitors And Uses In Treatments Of Obesity And Diabetes Mellitus - 087” (ASTRAZENECA AB, priority 2007, published 2009).

In assay [1] the target is Human recombinant Acetyl-CoA Carboxylase 1 (ACC1) (Homo sapiens, UniProt Q13085). Nature of the assay: Assay X: ACC1 inhibition, inorganic phosphate (malachite green). The conditions noted are these: Assay X: 37° C., 1.5 h, 5 min pre-incubation. Type of assay: biochemical. The method, then:
(§1) Human recombinant Acetyl-CoA Carboxylase 1 and Acetyl-CoA Carboxylase 2 (ACC1 and ACC2) were assayed by determining the amount of inorganic phosphate (Pi) generated. Pre-incubation of 15 μL enzyme together with 0.75 μL DMSO+/−compound for 5 min was done before the reaction was initiated by the addition of 10 μL substrate. […] After 1.5 h the reaction was stopped by addition of 74 μL of water followed by extensive mixing, split and transfer of 2×40 μL to a read-plate encompassing 30 μL distilled H2O per well (n=2→n=4). Colour reaction was initiated by addition of 30 μL malachite green reagent per well and allowed 15 min before absorbance reading of the plates at 660 nm. The malachite green reagent was prepared by mixing 16.4 mL ammonium molybdate solution (7.5%), 1.64 mL Tween (11%) with 82 mL Malachite Green/H2SO4-solution (0.7 g Malachite Green to 1000 mL of 10% (v/v) H2SO4).
(§2) All compounds were tested in triplicate at 10 different concentrations. Control compound (0, 50 and 100% effect) was included on each plate. […] Curve fitting was done using the following equation: y=(A+((B−A)/(1+((x/C)̂D)))) where A and B represents the curve bottom (% inhibition) and the total amplitude (% inhibition), respectively, whereas C and D are the apparent IC50 and curve slope, respectively.

Assay [2] concerns the target Human recombinant Acetyl-CoA Carboxylase 2 (ACC2) (Homo sapiens, UniProt O00763). Nature of the assay: Assay X: ACC2 inhibition, inorganic phosphate (malachite green). The assay is classed as biochemical. The conditions noted are these: Assay X: 37° C., 1.5 h, 5 min pre-incubation. The method, then: as §1, §2

Human recombinant Acetyl-CoA Carboxylase 2 (ACC2), sequence (O00763 whole entry): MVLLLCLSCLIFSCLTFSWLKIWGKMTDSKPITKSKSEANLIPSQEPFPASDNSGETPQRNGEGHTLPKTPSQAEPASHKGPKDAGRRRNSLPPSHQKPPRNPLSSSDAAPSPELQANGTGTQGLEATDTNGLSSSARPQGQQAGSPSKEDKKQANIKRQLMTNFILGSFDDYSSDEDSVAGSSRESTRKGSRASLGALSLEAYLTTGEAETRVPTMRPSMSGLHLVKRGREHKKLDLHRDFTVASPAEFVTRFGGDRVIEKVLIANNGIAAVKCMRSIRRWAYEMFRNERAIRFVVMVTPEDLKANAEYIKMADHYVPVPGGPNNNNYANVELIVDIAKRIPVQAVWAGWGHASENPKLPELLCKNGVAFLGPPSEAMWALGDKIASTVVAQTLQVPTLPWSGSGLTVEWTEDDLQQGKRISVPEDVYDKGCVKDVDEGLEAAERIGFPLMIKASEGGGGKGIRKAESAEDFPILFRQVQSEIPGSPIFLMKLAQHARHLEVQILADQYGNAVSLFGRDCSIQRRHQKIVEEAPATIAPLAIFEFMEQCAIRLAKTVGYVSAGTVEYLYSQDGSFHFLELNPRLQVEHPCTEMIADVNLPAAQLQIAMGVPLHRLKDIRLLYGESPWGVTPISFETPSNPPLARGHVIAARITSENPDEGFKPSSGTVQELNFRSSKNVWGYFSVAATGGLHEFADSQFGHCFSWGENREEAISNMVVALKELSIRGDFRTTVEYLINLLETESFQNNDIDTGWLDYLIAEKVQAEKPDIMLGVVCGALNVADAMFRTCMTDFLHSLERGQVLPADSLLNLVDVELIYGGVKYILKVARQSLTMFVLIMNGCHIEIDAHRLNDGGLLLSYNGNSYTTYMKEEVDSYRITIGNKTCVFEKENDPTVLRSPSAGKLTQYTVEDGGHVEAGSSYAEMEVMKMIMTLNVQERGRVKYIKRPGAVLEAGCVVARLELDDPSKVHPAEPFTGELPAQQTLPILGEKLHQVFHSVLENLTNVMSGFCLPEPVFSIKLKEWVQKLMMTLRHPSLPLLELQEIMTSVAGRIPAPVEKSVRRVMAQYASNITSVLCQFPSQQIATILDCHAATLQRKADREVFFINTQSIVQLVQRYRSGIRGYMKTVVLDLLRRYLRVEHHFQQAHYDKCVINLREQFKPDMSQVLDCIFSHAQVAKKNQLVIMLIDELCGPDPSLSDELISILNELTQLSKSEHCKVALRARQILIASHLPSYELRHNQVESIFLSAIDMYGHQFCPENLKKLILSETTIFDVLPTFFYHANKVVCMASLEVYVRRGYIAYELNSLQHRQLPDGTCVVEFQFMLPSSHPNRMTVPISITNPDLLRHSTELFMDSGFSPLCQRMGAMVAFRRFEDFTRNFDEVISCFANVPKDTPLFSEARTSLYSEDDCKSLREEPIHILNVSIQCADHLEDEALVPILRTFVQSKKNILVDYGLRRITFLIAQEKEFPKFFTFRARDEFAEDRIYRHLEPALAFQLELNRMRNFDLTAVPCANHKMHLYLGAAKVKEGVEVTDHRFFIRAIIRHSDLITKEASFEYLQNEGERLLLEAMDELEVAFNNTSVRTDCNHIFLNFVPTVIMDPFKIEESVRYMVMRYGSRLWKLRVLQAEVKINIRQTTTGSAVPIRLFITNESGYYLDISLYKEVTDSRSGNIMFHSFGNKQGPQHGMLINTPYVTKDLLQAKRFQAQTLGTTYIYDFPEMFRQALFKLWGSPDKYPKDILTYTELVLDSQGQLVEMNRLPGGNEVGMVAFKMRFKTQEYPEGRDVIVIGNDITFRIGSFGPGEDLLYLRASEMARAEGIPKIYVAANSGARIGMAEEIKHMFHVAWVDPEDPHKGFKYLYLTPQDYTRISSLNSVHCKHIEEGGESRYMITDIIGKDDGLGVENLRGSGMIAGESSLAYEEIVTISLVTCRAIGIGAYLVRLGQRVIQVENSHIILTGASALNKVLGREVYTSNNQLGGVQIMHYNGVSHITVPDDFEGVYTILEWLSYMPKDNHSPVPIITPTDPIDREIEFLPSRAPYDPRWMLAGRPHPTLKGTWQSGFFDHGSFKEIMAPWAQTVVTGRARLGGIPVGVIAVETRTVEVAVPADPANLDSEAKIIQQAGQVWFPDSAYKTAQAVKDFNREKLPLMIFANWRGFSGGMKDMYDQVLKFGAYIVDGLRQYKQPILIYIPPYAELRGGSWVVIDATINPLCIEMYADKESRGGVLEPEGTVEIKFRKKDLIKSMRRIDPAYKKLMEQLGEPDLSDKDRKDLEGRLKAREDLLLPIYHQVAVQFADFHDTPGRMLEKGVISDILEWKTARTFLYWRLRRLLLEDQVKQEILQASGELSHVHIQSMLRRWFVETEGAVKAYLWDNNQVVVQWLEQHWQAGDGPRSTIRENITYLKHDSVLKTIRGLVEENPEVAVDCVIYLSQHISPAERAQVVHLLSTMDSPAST

Regarding `Cn1cc(CNc2ccc(-c3cc(C(=O)NC[C@H]4CC[C@H](CNC(=O)OC(C)(C)C)CC4)c4ccccc4n3)cn2)cn1` [Example 166, tert-Butyl({trans-4-[({[2-(6-{[(1-methyl-1H-pyrazol-4-yl)methyl]amino}-pyridin-3-yl)quinolin-4-yl]carbonyl}amino)-methyl]cyclohexyl}methyl)carbamate], the IC50 in assay [1] worked out at 820 nM; in assay [2] it was 410 nM.

In the case of `CN(C)CC(O)CC1CCN(c2cc(C(=O)NC[C@H]3CC[C@H](CNC(=O)OC(C)(C)C)CC3)c3ccccc3n2)CC1` (stereo partly drawn) [Example 205, tert-Butyl {[trans-4-({[(2-{4-[3-(dimethylamino)-2-hydroxypropyl]piperidin-1-yl}quinolin-4-yl)carbonyl]amino}methyl)cyclohexyl]methyl}carbamate], the IC50 was determined as 1310 nM in assay [1] and 140 nM in assay [2].

Turning to `CC(C)(C)OC(=O)NC[C@H]1CC[C@H](CNC(=O)c2cc(-c3ccc(N4CCOC(CO)C4)nc3)nc3ccccc23)CC1` (relative stereo) [Example 171, tert-Butyl{[trans-4-({[(2-{6-[2-(hydroxymethyl)morpholin-4-yl]-pyridin-3-yl}quinolin-4-yl)carbonyl]amino}-methyl)cyclohexyl]-methyl}carbamate], the IC50 in assay [1] was determined as 290 nM; in assay [2] it was 140 nM.

Regarding `CC(C)(C)OC(=O)NC[C@H]1CC[C@H](CNC(=O)c2cc(-c3ccc(OC4CCOCC4)nc3)nc3ccccc23)CC1` [Example 175, tert-Butyl[(trans-4-{[({2-[6-(tetrahydro-2H-pyran-4-yloxy)-pyridin-3-yl]-quinolin-4-yl}-carbonyl)amino]-methyl}cyclohexyl)methyl]carbamate], the values for the IC50 in assay [1] and in assay [2] were 7300 nM and 500 nM, respectively.

For the compound `CC(C)(C)OC(=O)NC[C@H]1CC[C@H](CNC(=O)c2cc(-c3ccc(N4CCNCC4)nc3)nc3ccccc23)CC1` [Example 154, tert-Butyl({trans-4-[({[2-(6-piperazin-1-ylpyridin-3-yl)-quinolin-4-yl]-carbonyl}amino)methyl]cyclohexyl}methyl)carbamate], the IC50 in assay [1] turned out to be 190 nM; in assay [2], 50 nM.

Turning to `CC(C)(C)OC(=O)NC[C@H]1CC[C@H](CNC(=O)c2cc(-c3ccc(NC(CO)CO)nc3)nc3ccccc23)CC1` [Example 164, tert-Butyl({trans-4-[({[2-(6-{[2-hydroxy-1-(hydroxymethyl)-ethyl]amino}pyridin-3-yl)quinolin-4-yl]-carbonyl}amino)methyl]cyclohexyl}methyl)-carbamate], the IC50 in assay [1] came out at 1260 nM; in assay [2], 330 nM.

Turning to `O=C(NC[C@H]1CC[C@H](CNC(=O)c2cc(-c3ccc(N4CC[C@@H](O)C4)nc3)nc3ccccc23)CC1)O[C@H]1CCOC1` [Example 201, (3S)-Tetrahydrofuran-3-yl {[trans-4-({[(2-{6-[(3R)-3-hydroxypyrrolidin-1-yl]pyridin-3-yl}quinolin-4-yl)carbonyl]amino}methyl)cyclohexyl]methyl}-carbamate], the IC50 in assay [1] was determined as 2170 nM; in assay [2], 850 nM.

For the compound `CCNC(=O)Nc1sc2ccccc2c1C(=O)NC[C@H]1CC[C@H](CNC(=O)OC(C)(C)C)CC1` [Example 223, tert-Butyl [(trans-4-{[({2-[(ethylcarbamoyl)amino]-1-benzothiophen-3-yl}carbonyl)amino]methyl}cyclohexyl)methyl]carbamate], the half-maximal inhibitory concentration (IC50) in assay [1] worked out at 1160 nM; in assay [2], 230 nM.

For the compound `CC(C)(C)OC(=O)NC[C@H]1CC[C@H](CNC(=O)c2cc(N3CCC(CC(O)CN4CCOCC4)CC3)nc3ccccc23)CC1` (single isomer, unassigned) [Example 208, (R) or (S) tert-Butyl [(trans-4-{[({2-[4-(2-hydroxy-3-morpholin-4-ylpropyl)piperidin-1-yl]quinolin-4-yl}-carbonyl)amino]methyl}cyclohexyl)methyl]-carbamate], the figures for the IC50 in assay [1] and in assay [2] were 1100 nM and 170 nM, respectively.

With `CN(C)CCOc1ccc(-c2cc(C(=O)NC[C@H]3CC[C@H](CNC(=O)OC4CCOCC4)CC3)c3ccccc3n2)cn1` [Example 195, Tetrahydro-2H-pyran-4-yl {[trans-4-({[(2-{6-[2-(dimethylamino)ethoxy]pyridin-3-yl}quinolin-4-yl)carbonyl]amino}methyl)cyclohexyl]methyl}carbamate], the IC50 in assay [1] amounted to 4900 nM; in assay [2] it was 820 nM.

In the case of `CN(C)CC(F)CC1CCN(c2cc(C(=O)NC[C@H]3CC[C@H](CNC(=O)OC(C)(C)C)CC3)c3ccccc3n2)CC1` (stereo partly drawn) [Example 237, tert-Butyl {[trans-4-({[(2-{4-[3-(dimethylamino)-2-fluoropropyl]piperidin-1-yl}quinolin-4-yl)carbonyl]amino}methyl)cyclohexyl]methyl}carbamate], the IC50 was found to be 1090 nM in assay [1] and 140 nM in assay [2].

In the case of `CC(O)C(C)Oc1ccc(-c2cc(C(=O)NC[C@H]3CC[C@H](CNC(=O)OC(C)(C)C)CC3)c3ccccc3n2)cn1` (relative stereo) [Example 176, tert-Butyl[(trans-4-{[({2-[6-(2-hydroxy-1-methylpropoxy)-pyridin-3-yl]-quinolin-4-yl}-carbonyl)amino]-methyl}cyclohexyl)methyl]carbamate], the IC50 worked out at 3040 nM in assay [1] and 1050 nM in assay [2].

As for `CC(C)(C)OC(=O)NC[C@H]1CC[C@H](CNC(=O)c2cc(N3CCC(CCNC4CCOCC4)CC3)nc3ccccc23)CC1` [Example 228, tert-Butyl{[trans-4-({[(2-{4-[2-(tetrahydro-2H-pyran-4-ylamino)ethyl]piperidin-1-yl}quinolin-4-yl)carbonyl]amino}-methyl)cyclohexyl]-methyl}carbamate], the values for the IC50 in assay [1] and in assay [2] were 1520 nM and 210 nM, respectively.

For the compound `CC(C)(C)OC(=O)NC[C@H]1CC[C@H](CNC(=O)c2cc(-c3ccc(OCCO)nc3)nc3ccccc23)CC1` [Example 174, tert-Butyl[(trans-4-{[({2-[6-(2-hydroxyethoxy)-pyridin-3-yl]-quinolin-4-yl}-carbonyl)amino]-methyl}cyclohexyl)methyl]carbamate], the figures for the IC50 in assay [1] and in assay [2] were 1000 nM and 340 nM, respectively.

For the compound `CC(C)(C)OC(=O)NC[C@H]1CC[C@H](CNC(=O)c2cc(N3CCN(C(=O)CO)CC3)nc3ccccc23)CC1` [Example 220, tert-Butyl [(trans-4-{[({2-[4-(hydroxyacetyl)piperazin-1-yl]quinolin-4-yl}carbonyl)amino]methyl}cyclohexyl)methyl]carbamate], the IC50 was 9630 nM in assay [1] and 1180 nM in assay [2].

As for `CN1CCN(C2CCN(c3cc(C(=O)NC[C@H]4CC[C@H](CNC(=O)OC(C)(C)C)CC4)c4ccccc4n3)CC2)CC1` [Example 214, tert-Butyl[(trans-4-{[({2-[4-(4-methylpiperazin-1-yl)piperidin-1-yl]-quinolin-4-yl}carbonyl)amino]methyl}cyclohexyl)methyl]-carbamate], the IC50 was 3310 nM in assay [1] and 2240 nM in assay [2].

Consider `CC(C)(C)OC(=O)NC[C@H]1CC[C@H](CNC(=O)c2cc(N3CCC(CCN4CCC4)CC3)nc3ccccc23)CC1` [Example 234, tert-Butyl [(trans-4-{[({2-[4-(2-azetidin-1-ylethyl)piperidin-1-yl]quinolin-4-yl}carbonyl)amino]methyl}cyclohexyl)methyl]carbamate], for which the IC50 in assay [1] worked out at 950 nM; in assay [2], 110 nM.

For the compound `CC(C)(C)OC(=O)NC[C@H]1CC[C@H](CNC(=O)c2cc(N3CCC(CC(O)CN4CCCC4)CC3)nc3ccccc23)CC1` (single isomer, unassigned) [Example 209, (S) or (R) tert-Butyl [(trans-4-{[({2-[4-(2-hydroxy-3-pyrrolidin-1-ylpropyl)-piperidin-1-yl]quinolin-4-yl}carbonyl)amino]-methyl}cyclohexyl)methyl]carbamate], the IC50 was found to be 780 nM in assay [1] and 110 nM in assay [2].

With `CC(C)(C)OC(=O)NC[C@H]1CC[C@H](CNC(=O)c2cc(N3CCC(CC(O)CN4CCCC4)CC3)nc3ccccc23)CC1` (relative stereo) [Example 206, tert-butyl [(trans-4-{[({2-[4-(2-hydroxy-3-pyrrolidin-1-ylpropyl)piperidin-1-yl]quinolin-4-yl}carbonyl)amino]methyl}cyclohexyl)methyl]carbamate], the IC50 in assay [1] was determined as 973 nM; in assay [2], 130 nM.

For the compound `CC(C)(C)OC(=O)NC[C@H]1CC[C@H](CNC(=O)c2cc(N3CCC(CCN4CC(C(=O)O)C4)CC3)nc3ccccc23)CC1` [Example 235, 1-{2-[1-(4-{[(trans-4-{[(tert-Butoxycarbonyl)amino]methyl}cyclohexyl)methyl]-carbamoyl}quinolin-2-yl)piperidin-4-yl]ethyl}azetidine-3-carboxylic Acid], the IC50 in assay [1] came out at 1840 nM; in assay [2], 230 nM.

For `CC(C)(C)OC(=O)NC[C@H]1CC[C@H](CNC(=O)c2cc(-c3ccc(N4CCNC(=O)C4)nc3)nc3ccccc23)CC1` [Example 165, tert-Butyl[(trans-4-{[({2-[6-(3-oxopiperazin-1-yl)-pyridin-3-yl]quinolin-4-yl}carbonyl)amino]-methyl}cyclohexyl)methyl]carbamate], the IC50 was 540 nM in assay [1] and 160 nM in assay [2].
